Where “and” joins values, the source holds several entries; their conditions need not be identical. Equal values may be shown once.
Tests used:
[1] = xn = mol fraction of the nth substance listed

C1CCC2=[NH+]CCCN2CC1.c1nc[n-]n1
Conditions	viscosity [mPa·s]
303.15 K, 100 kPa	1356

C=CC(=O)OC
viscosity
Conditions	293.15 K	298.15 K	303.15 K	308.15 K	313.15 K	318.15 K
100 kPa	0.5038 mPa·s	0.4602 mPa·s	0.435 mPa·s and 0.4197 mPa·s	0.415 mPa·s and 0.3856 mPa·s	0.396 mPa·s and 0.355 mPa·s	0.3276 mPa·s
101 kPa	0.5038 mPa·s and 0.492 mPa·s and 0.502 mPa·s	–	–	–	–	0.3276 mPa·s and 0.375 mPa·s and 0.334 mPa·s

C=CC(=O)OCCCC
viscosity
Conditions	293.15 K	298.15 K	303.15 K	308.15 K	313.15 K	318.15 K
100 kPa	0.8996 mPa·s	0.8385 mPa·s	0.782 mPa·s	0.7306 mPa·s	0.6833 mPa·s	0.6387 mPa·s
101 kPa	0.8996 mPa·s and 0.868 mPa·s	–	0.782 mPa·s and 0.751 mPa·s and 0.781 mPa·s	–	0.6833 mPa·s and 0.658 mPa·s and 0.684 mPa·s	0.6387 mPa·s and 0.618 mPa·s
101.33 kPa	0.8763 mPa·s	–	0.7568 mPa·s	–	0.6609 mPa·s	–

CC(=O)OC(C)(C)C
101 kPa
Conditions	viscosity [mPa·s]
298.15 K	0.683
308.15 K	0.596

CC(C)(C)c1ccccc1
viscosity [mPa·s]
Conditions	293.15 K	298.15 K	303.15 K	308.15 K	313.15 K	318.15 K	323.15 K
100 kPa	–	1.118	–	0.97	–	0.853	–
102 kPa	1.13	–	0.982	–	0.854	–	0.751

CC(C)CO
Conditions	viscosity
293.15 K, 101 kPa	4.02 mPa·s and 4.009 mPa·s
293.15 K, 101.33 kPa	4.008 mPa·s and 2.75 mPa·s
297 K, 101 kPa	3.569 mPa·s
298.15 K, 101.3 kPa	3.247 mPa·s and 3.256 mPa·s
298.15 K, 101.33 kPa	3.537 mPa·s and 3.41 mPa·s and 3.41 mPa·s
303 K, 101 kPa	2.943 mPa·s
303 K, 101.33 kPa	2.58 mPa·s
303.15 K, 100 kPa	2.938 mPa·s and 2.781 mPa·s
303.15 K, 101.3 kPa	2.745 mPa·s and 2.743 mPa·s and 2.842 mPa·s
303.15 K, 101.33 kPa	2.54 mPa·s and 2.982 mPa·s and 2.1 mPa·s
308 K, 101 kPa	2.261 mPa·s
308.15 K, 100 kPa	2.487 mPa·s and 2.231 mPa·s
308.15 K, 101.33 kPa	2.433 mPa·s
313 K, 101 kPa	2.169 mPa·s
313.15 K, 100 kPa	2.174 mPa·s
313.15 K, 101 kPa	2.17 mPa·s and 2.138 mPa·s and 1.96 mPa·s
313.15 K, 101.3 kPa	2.08 mPa·s
313.15 K, 101.33 kPa	2.186 mPa·s and 1.65 mPa·s
318.15 K, 101 kPa	1.751 mPa·s and 1.834 mPa·s
318.15 K, 101.33 kPa	1.804 mPa·s
323 K, 101 kPa	1.632 mPa·s
323.15 K, 100 kPa	1.637 mPa·s
323.15 K, 101.33 kPa	1.663 mPa·s

CC1CCCO1 (stereo not drawn)
298.15 K
Conditions	viscosity [mPa·s]
101 kPa	0.463
101.33 kPa	0.4753

CCCC=O
Conditions	viscosity [mPa·s]
298.1 K, 101 kPa	0.403

CCCCCC
viscosity
Conditions	293.15 K	298 K	303 K	303.15 K	308.15 K	313 K	313.15 K	318.15 K	323 K	323.15 K
100 kPa	–	–	–	0.2941 mPa·s	–	–	0.259 mPa·s and 0.26 mPa·s and 0.257 mPa·s	–	–	0.2345 mPa·s and 0.231 mPa·s
101 kPa	0.31 mPa·s and 0.3119 mPa·s	0.31 mPa·s	0.2673 mPa·s	–	0.268 mPa·s and 0.265 mPa·s	0.2482 mPa·s	–	0.3 mPa·s and 0.245 mPa·s	0.2285 mPa·s	0.2333 mPa·s and 0.235 mPa·s
101.3 kPa	–	–	–	0.2776 mPa·s and 0.286 mPa·s and 0.294 mPa·s	–	–	0.274 mPa·s	–	–	0.251 mPa·s
101.33 kPa	0.31 mPa·s	–	0.273 mPa·s and 0.2865 mPa·s	–	–	0.247 mPa·s	0.2391 mPa·s and 0.257 mPa·s and 0.257 mPa·s	0.247 mPa·s	0.226 mPa·s	0.2524 mPa·s

CCCCCCCCCCCCCC(=O)OC
Conditions	viscosity [mPa·s]
323.15 K, 100 kPa	2.301

CCCCCCCCCCCCc1ccccc1
102 kPa
Conditions	viscosity [mPa·s]
293.15 K	5.47
303.15 K	4.21
313.15 K	3.33
323.15 K	2.71

CCCCCCCC[P+](CC)(CC)CC.O=[N+]([O-])c1cnc[n-]1
100 kPa
Conditions	viscosity [mPa·s]
293.15 K	398
298.15 K	286
303.15 K	212
308.15 K	160
313.15 K	124
318.15 K	98
323.15 K	78

CCCCCOC(=O)CCC
101 kPa
Conditions	viscosity [mPa·s]
298.15 K	1.07
313.15 K	0.86

CCCCCOC(C)=O
viscosity
Conditions	293.15 K	303.15 K	313.15 K	323.15 K
101 kPa	–	–	0.663 mPa·s	0.589 mPa·s
101.3 kPa	–	0.7522 mPa·s and 0.7522 mPa·s	–	–
101.33 kPa	0.931 mPa·s	0.805 mPa·s	0.676 mPa·s	0.552 mPa·s

CCC[N+]1(C)CCCCC1.O=S(=O)([N-]S(=O)(=O)C(F)(F)F)C(F)(F)F
101.3 kPa
Conditions	viscosity [mPa·s]
293.15 K	199
298.15 K	147
303.15 K	112
308.15 K	86.6
313.15 K	68.5
318.15 K	55.1
323.15 K	45.1

CCOC(=O)CC
Conditions	viscosity [mPa·s]
303.15 K, 101 kPa	0.4833

CCn1cc[n+](C)c1.O=S(=O)([O-])C(F)(F)F
101 kPa
Conditions	viscosity
293.15 K	48.6 mPa·s
298.15 K	43.8 mPa·s and 40.44 mPa·s
303.15 K	36.7 mPa·s and 34.02 mPa·s
308.15 K	32.28 mPa·s
313.15 K	26.6 mPa·s and 24.89 mPa·s
318.15 K	21.55 mPa·s
323.15 K	18.64 mPa·s

CN(C)CCO
viscosity
Conditions	293.15 K	298.15 K	303.15 K	308.15 K	313.15 K	318.15 K	323.15 K
101 kPa	4.27 mPa·s	3.78 mPa·s	3.24 mPa·s and 2.835 mPa·s	2.91 mPa·s and 2.485 mPa·s	2.53 mPa·s and 2.186 mPa·s	2.27 mPa·s and 1.938 mPa·s	2.04 mPa·s and 1.723 mPa·s
101.3 kPa	–	–	2.419 mPa·s	–	2.023 mPa·s	–	1.734 mPa·s

Cc1ccccc1O
viscosity
Conditions	293.15 K	298.15 K	308.15 K	313.15 K	318.15 K	323.15 K
101 kPa	9.56 mPa·s	7.607 mPa·s and 7.608 mPa·s	–	4.312 mPa·s and 4.238 mPa·s and 4.1 mPa·s	3.506 mPa·s and 2.215 mPa·s	–
101.3 kPa	–	–	–	4.243 mPa·s	–	3.02 mPa·s
101.33 kPa	–	7.493 mPa·s	4.853 mPa·s	–	3.359 mPa·s	2.83 mPa·s

ClCC(Cl)Cl
viscosity [mPa·s]
Conditions	298.15 K	308.15 K	313.15 K
100 kPa	–	0.953	0.887
101 kPa	1.061	–	–

O=C([O-])CC(O)(CC(=O)[O-])C(=O)[O-].[NH3+]CCO.[NH3+]CCO.[NH3+]CCO
101 kPa
Conditions	viscosity [mPa·s]
293.15 K	183.9
303.15 K	113.8
313.15 K	67.2
323.15 K	37.38

O=C1OCCO1
viscosity
Conditions	298.15 K	313.15 K	323.15 K
100 kPa	–	1.81 mPa·s and 1.917 mPa·s	1.56 mPa·s
101.3 kPa	2.263 mPa·s	1.879 mPa·s	–
101.33 kPa	–	1.93 mPa·s	–

CC(C)(C)c1ccccc1 + c1ccccc1
[1], 303.15 K, 101.3 kPa
Conditions	viscosity [mPa·s]
x2 = 0.0424	0.9763
x2 = 0.1376	0.9194
x2 = 0.2605	0.8507
x2 = 0.4018	0.7791
x2 = 0.5266	0.725
x2 = 0.682	0.6637
x2 = 0.7952	0.6265
x2 = 0.865	0.6036
x2 = 0.9376	0.5792

CC(C)CO + c1ccccc1
[1], 303 K, 101.3 kPa
Conditions	viscosity [mPa·s]
x2 = 0.1012	2.322
x2 = 0.2055	1.88
x2 = 0.3024	1.551
x2 = 0.4124	1.26
x2 = 0.511	1.057
x2 = 0.6016	0.9052
x2 = 0.706	0.7704
x2 = 0.8037	0.6783
x2 = 0.8987	0.6131

CCOC(=O)CC + c1ccccc1
viscosity [mPa·s], [1], 101.3 kPa
Conditions	308.15 K	318.15 K
x1 = 0.0521	0.53	0.47
x1 = 0.0984	0.525	0.47
x1 = 0.2018	0.513	0.469
x1 = 0.3029	0.503	0.468
x1 = 0.4009	0.495	0.465
x1 = 0.4991	0.487	0.462
x1 = 0.5982	0.481	0.459
x1 = 0.7114	0.475	0.453
x1 = 0.8042	0.472	0.448
x1 = 0.8989	0.469	0.443
x1 = 0.92	0.468	0.441

Cc1ccccc1O + c1ccncc1
viscosity [mPa·s], [1], 101 kPa
Conditions	x1 = 0.09109	x1 = 0.1923	x1 = 0.2702	x1 = 0.3823	x1 = 0.4812	x1 = 0.5958	x1 = 0.7186	x1 = 0.8145	x1 = 0.8918
293.15 K	1.176	1.556	1.983	2.962	4.455	6.845	9.26	10.04	10.01
303.15 K	1.022	1.35	1.724	2.56	3.625	4.935	6.23	6.565	6.45
313.15 K	0.886	1.148	1.436	2.045	2.75	3.575	4.29	4.415	4.325

— the CheMixHub viscosity set
